In one series the test system is MDCK. Put plainly: Cytotoxicity against dog MDCK cells assessed as reduction in cell viability at 100 uM incubated for 40 hrs by celltiter-glo assay. It is filed as toxicity, cell-based, Canis lupus familiaris.
The test system of series [1] is Influenza A virus. Description: Antiviral activity against Influenza A virus H1N1 infected in MDCK cells assessed as inhibition of viral growth at 100 uM relative to control. In kind it is functional.
Series [2] deals with Influenza A virus. Description: Antiviral activity against influenza A virus A/WSN/33(H1N1) infected in MDCK cells assessed as inhibition of viral-induced cytopathic effect pretreated with cells followed by viral infection and measured after 40 hrs by fluorescence based microplate reader analysis. It is filed as functional, organism-based. A general note: Cytopathic effects are the visible damage that an infection or toxin causes in cultured cells.

Series [3] in a line: Cytotoxicity against dog MDCK cells assessed as reduction in cell viability incubated for 40 hrs by celltiter-glo assay. In kind it is toxicity, cell-based, Canis lupus familiaris.
Series [4] is described as follows: Selectivity index, ratio of CC50 for dog MDCK cells to IC50 for influenza A virus A/WSN/33(H1N1) infected in MDCK cells. It is filed as toxicity, cell-based. Particulars: read-out: Selectivity Index.
The test system of series [5] is Influenza A virus. Description: Antiviral activity against Influenza A virus A/WSN/33(H1N1) infected in female BALB/c kunming mouse assessed as reduction in lung index at 12.5 mg/kg/day, administered intranasally once per day for 7 days starting from 24 hrs post-viral infection and measured daily. It is filed as functional. The following applies: time 7 day.
The test system of series [6] is Influenza A virus. Put plainly: Antiviral activity against Influenza A virus A/WSN/33(H1N1) infected in female BALB/c kunming mouse assessed as reduction in severe pneumonia at 10 mg/kg/day, administered intranasally once per day for 7 days starting from 24 hrs post-viral infection and measured daily. In kind it is functional, organism-based. The following applies: time 7.0 day.

Series [7] has as its system Influenza A virus. Description: Antiviral activity against Influenza A virus A/WSN/33(H1N1) infected in female BALB/c kunming mouse assessed as reduction in immune cell infiltration at 10 mg/kg/day, administered intranasally once per day for 7 days starting from 24 hrs post-viral infection and measured daily. It is filed as functional, organism-based. Particulars: time 7.0 day.

Calls of active or inactive are those of the source. No cut-off for these calls is given here.

By inhibition is commonly meant the percentage by which the read-out fell short of the control. The IC50 is the concentration needed to halve the response being measured. In general, CC50 refers to the concentration at which the toxic effect on the cells reaches its halfway point. For the compound `CC1(C)CC[C@]2(C(=O)NCc3cn([C@@H]4O[C@H](CO)[C@@H](O)[C@H](O)[C@H]4O)nn3)CC[C@]3(C)C(=CC[C@@H]4[C@@]5(C)CC[C@H](OC(=O)NCc6cn(CC(CO)(Cn7cc(CNC(=O)O[C@H]8CC[C@]9(C)[C@H]%10CC=C%11[C@@H]%12CC(C)(C)CC[C@]%12(C(=O)NCc%12cn([C@@H]%13O[C@H](CO)[C@@H](O)[C@H](O)[C@H]%13O)nn%12)CC[C@@]%11(C)[C@]%10(C)CC[C@H]9C8(C)C)nn7)Cn7cc(CNC(=O)O[C@H]8CC[C@]9(C)[C@H]%10CC=C%11[C@@H]%12CC(C)(C)CC[C@]%12(C(=O)NCc%12cn([C@@H]%13O[C@H](CO)[C@@H](O)[C@H](O)[C@H]%13O)nn%12)CC[C@@]%11(C)[C@]%10(C)CC[C@H]9C8(C)C)nn7)nn6)C(C)(C)[C@@H]5CC[C@]43C)[C@@H]2C1`, in the series with MDCK, the Activity result is “Non-toxic”. Moreover, in the series on Influenza A virus [1], the inhibition at 100 µM is greater than 75%. The IC50 in the series with Influenza A virus [2] turned out to be 6.91 µM. Further, the CC50 at 40 h in series [3] is greater than 100 µM. Further, the selectivity ratio in series [4] was greater than 14.5.
On to `CC1(C)CC[C@]2(C(=O)NCc3cn([C@@H]4O[C@H](CO)[C@@H](O)[C@H](O)[C@H]4O)nn3)CC[C@]3(C)C(=CC[C@@H]4[C@@]5(C)CC[C@H](OC(=O)NCCCc6cn(Cc7cc(Cn8cc(CCCNC(=O)O[C@H]9CC[C@]%10(C)[C@H]%11CC=C%12[C@@H]%13CC(C)(C)CC[C@]%13(C(=O)NCc%13cn([C@@H]%14O[C@H](CO)[C@@H](O)[C@H](O)[C@H]%14O)nn%13)CC[C@@]%12(C)[C@]%11(C)CC[C@H]%10C9(C)C)nn8)cc(Cn8cc(CCCNC(=O)O[C@H]9CC[C@]%10(C)[C@H]%11CC=C%12[C@@H]%13CC(C)(C)CC[C@]%13(C(=O)NCc%13cn([C@@H]%14O[C@H](CO)[C@@H](O)[C@H](O)[C@H]%14O)nn%13)CC[C@@]%12(C)[C@]%11(C)CC[C@H]%10C9(C)C)nn8)c7)nn6)C(C)(C)[C@@H]5CC[C@]43C)[C@@H]2C1`, for which, in the series on MDCK, the Activity entry is “Non-toxic”. For the same compound, in the series on Influenza A virus [1], the inhibition at 100 µM is greater than 75%. Besides, the IC50 in the series with Influenza A virus [2] was 43.9 µM. Moreover, the CC50 at 40 h in series [3] was greater than 100 µM. In addition, in series [4], the selectivity ratio is greater than 2.28.
In the same order, the values of `CC(=O)OC[C@H]1O[C@@H](n2cc(CNC(=O)[C@]34CCC(C)(C)C[C@H]3C3=CC[C@@H]5[C@@]6(C)CC[C@H](OC(=O)NCCCc7cn(CC(CO)(Cn8cc(CCCNC(=O)O[C@H]9CC[C@]%10(C)[C@H]%11CC=C%12[C@@H]%13CC(C)(C)CC[C@]%13(C(=O)NCc%13cn([C@@H]%14O[C@H](COC(C)=O)[C@@H](OC(C)=O)[C@H](OC(C)=O)[C@H]%14OC(C)=O)nn%13)CC[C@@]%12(C)[C@]%11(C)CC[C@H]%10C9(C)C)nn8)Cn8cc(CCCNC(=O)O[C@H]9CC[C@]%10(C)[C@H]%11CC=C%12[C@@H]%13CC(C)(C)CC[C@]%13(C(=O)NCc%13cn([C@@H]%14O[C@H](COC(C)=O)[C@@H](OC(C)=O)[C@H](OC(C)=O)[C@H]%14OC(C)=O)nn%13)CC[C@@]%12(C)[C@]%11(C)CC[C@H]%10C9(C)C)nn8)nn7)C(C)(C)[C@@H]6CC[C@@]5(C)[C@]3(C)CC4)nn2)[C@H](OC(C)=O)[C@@H](OC(C)=O)[C@@H]1OC(C)=O` are “Non-toxic”, greater than 75%, 4.61 µM, greater than 100 µM and greater than 21.7.
Consider `CC(=O)OC[C@H]1O[C@@H](n2cc(CNC(=O)[C@]34CCC(C)(C)C[C@H]3C3=CC[C@@H]5[C@@]6(C)CC[C@H](OC(=O)NCCCCCc7cn(CC(CO)(Cn8cc(CCCCCNC(=O)O[C@H]9CC[C@]%10(C)[C@H]%11CC=C%12[C@@H]%13CC(C)(C)CC[C@]%13(C(=O)NCc%13cn([C@@H]%14O[C@H](COC(C)=O)[C@@H](OC(C)=O)[C@H](OC(C)=O)[C@H]%14OC(C)=O)nn%13)CC[C@@]%12(C)[C@]%11(C)CC[C@H]%10C9(C)C)nn8)Cn8cc(CCCCCNC(=O)O[C@H]9CC[C@]%10(C)[C@H]%11CC=C%12[C@@H]%13CC(C)(C)CC[C@]%13(C(=O)NCc%13cn([C@@H]%14O[C@H](COC(C)=O)[C@@H](OC(C)=O)[C@H](OC(C)=O)[C@H]%14OC(C)=O)nn%13)CC[C@@]%12(C)[C@]%11(C)CC[C@H]%10C9(C)C)nn8)nn7)C(C)(C)[C@@H]6CC[C@@]5(C)[C@]3(C)CC4)nn2)[C@H](OC(C)=O)[C@@H](OC(C)=O)[C@@H]1OC(C)=O`, for which the Activity result in the series on MDCK is “Non-toxic”. For the same compound, the inhibition at 100 µM in the series on Influenza A virus [1] is greater than 75%. For the same compound, in the series on Influenza A virus [2], the half-maximal inhibitory concentration (IC50) turned out to be 24.9 µM. In series [3], the 50% cytotoxic concentration (CC50) at 40 h was greater than 100 µM. The selectivity ratio in series [4] is greater than 4.02.
In the same order, the values of `CC(=O)OC[C@H]1O[C@@H](n2cc(CNC(=O)[C@]34CCC(C)(C)C[C@H]3C3=CC[C@@H]5[C@@]6(C)CC[C@H](OC(=O)NCCCCCc7cn(Cc8cc(Cn9cc(CCCCCNC(=O)O[C@H]%10CC[C@]%11(C)[C@H]%12CC=C%13[C@@H]%14CC(C)(C)CC[C@]%14(C(=O)NCc%14cn([C@@H]%15O[C@H](COC(C)=O)[C@@H](OC(C)=O)[C@H](OC(C)=O)[C@H]%15OC(C)=O)nn%14)CC[C@@]%13(C)[C@]%12(C)CC[C@H]%11C%10(C)C)nn9)cc(Cn9cc(CCCCCNC(=O)O[C@H]%10CC[C@]%11(C)[C@H]%12CC=C%13[C@@H]%14CC(C)(C)CC[C@]%14(C(=O)NCc%14cn([C@@H]%15O[C@H](COC(C)=O)[C@@H](OC(C)=O)[C@H](OC(C)=O)[C@H]%15OC(C)=O)nn%14)CC[C@@]%13(C)[C@]%12(C)CC[C@H]%11C%10(C)C)nn9)c8)nn7)C(C)(C)[C@@H]6CC[C@@]5(C)[C@]3(C)CC4)nn2)[C@H](OC(C)=O)[C@@H](OC(C)=O)[C@@H]1OC(C)=O` are “Non-toxic”, greater than 75%, 52.9 µM, greater than 100 µM and greater than 1.89.
The corresponding values for `CC1(C)CC[C@]2(C(=O)NCc3cn([C@@H]4O[C@H](CO)[C@@H](O)[C@H](O)[C@H]4O)nn3)CC[C@]3(C)C(=CC[C@@H]4[C@@]5(C)CC[C@H](OC(=O)NCCCCCc6cn(Cc7cc(Cn8cc(CCCCCNC(=O)O[C@H]9CC[C@]%10(C)[C@H]%11CC=C%12[C@@H]%13CC(C)(C)CC[C@]%13(C(=O)NCc%13cn([C@@H]%14O[C@H](CO)[C@@H](O)[C@H](O)[C@H]%14O)nn%13)CC[C@@]%12(C)[C@]%11(C)CC[C@H]%10C9(C)C)nn8)cc(Cn8cc(CCCCCNC(=O)O[C@H]9CC[C@]%10(C)[C@H]%11CC=C%12[C@@H]%13CC(C)(C)CC[C@]%13(C(=O)NCc%13cn([C@@H]%14O[C@H](CO)[C@@H](O)[C@H](O)[C@H]%14O)nn%13)CC[C@@]%12(C)[C@]%11(C)CC[C@H]%10C9(C)C)nn8)c7)nn6)C(C)(C)[C@@H]5CC[C@]43C)[C@@H]2C1` are “Non-toxic”, greater than 75%, 72.9 µM, greater than 100 µM and greater than 1.37.
In the same order, the values of `CC1(C)CC[C@]2(C(=O)NCc3cn([C@@H]4O[C@H](CO)[C@@H](O)[C@H](O)[C@H]4O)nn3)CC[C@]3(C)C(=CC[C@@H]4[C@@]5(C)CC[C@H](OC(=O)NCCCc6cn(CC(CO)(Cn7cc(CCCNC(=O)O[C@H]8CC[C@]9(C)[C@H]%10CC=C%11[C@@H]%12CC(C)(C)CC[C@]%12(C(=O)NCc%12cn([C@@H]%13O[C@H](CO)[C@@H](O)[C@H](O)[C@H]%13O)nn%12)CC[C@@]%11(C)[C@]%10(C)CC[C@H]9C8(C)C)nn7)Cn7cc(CCCNC(=O)O[C@H]8CC[C@]9(C)[C@H]%10CC=C%11[C@@H]%12CC(C)(C)CC[C@]%12(C(=O)NCc%12cn([C@@H]%13O[C@H](CO)[C@@H](O)[C@H](O)[C@H]%13O)nn%12)CC[C@@]%11(C)[C@]%10(C)CC[C@H]9C8(C)C)nn7)nn6)C(C)(C)[C@@H]5CC[C@]43C)[C@@H]2C1` are “Non-toxic”, greater than 75%, 3.93 µM, greater than 100 µM and greater than 25.5.
In the case of `CC1(C)CC[C@]2(C(=O)NCc3cn([C@@H]4O[C@H](CO)[C@@H](O)[C@H](O)[C@H]4O)nn3)CC[C@]3(C)C(=CC[C@@H]4[C@@]5(C)CC[C@H](O)C(C)(C)[C@@H]5CC[C@]43C)[C@@H]2C1`, in the series on MDCK, the Activity entry was “Non-toxic”. Also, the inhibition at 100 µM in the series with Influenza A virus [1] was greater than 75%. Further, in the series with Influenza A virus [2], the IC50 is 1.36 µM. Also, the CC50 at 40 h in series [3] was greater than 100 µM. In addition, in series [4], the selectivity ratio is greater than 73.5. For the same compound, the Activity_index in the series with Influenza A virus [5] is 1.4. Moreover, the outcome in the series with Influenza A virus [6] and in the series on Influenza A virus [7] was Active.

The values are drawn from ChEMBL document CHEMBL6078640, “Trivalent oleanolic acid-glucose conjugates: Synthesis and efficacy against Influenza A virus” (Eur J Med Chem, 2024).
